The assay concerns MC-38 tumors. Description: Anti-tumor efficacy of Compound 1 with and without anti-PD-1 in the subcutaneous MC-38 model (Example 4). The assay is classed as in vivo, Mus musculus. As to conditions: for MST: endpoint tumor volume 2000 mm^3; for T/C / TGI: Day 12. As to the method: Tumor sizes were measured three times a week in two dimensions using a caliper, and the volume expressed in mm^3 using the formula: V=0.5 a×b^2 where a and b are the long and short diameters of the tumor, respectively. The tumor sizes were then used for the calculations of both tumor growth inhibition (TGI) and T/C values.
TGI is calculated for each group using the formula: […]
TVTreatment_DayN is the average tumor volume of a treatment group on a given day, TVTreatment_Day0 is the average tumor volume of the treatment group on the first day of treatment, TVVehicle_DayN is the average tumor volume of the vehicle control group on a given day, and TVVehicle_Day0 is the average tumor volume of the vehicle group on the first day of treatment.
The T/C value (in percent) is an indication of antitumor effectiveness, T/C (%)=RTVTreatment/RTVControl×100% (RTVTreatment: the mean RTV of the treatment group; RTVControl: the mean RTV of the vehicle treated group). RTV (relative tumor volume)=TVDayN/TVDay0. TVDayN and TVDay0 is the tumor volume on day N and Day 0 respectively. T/C (%)≤42% is considered as significant antitumor activity and <10% is considered as highly significant antitumor activity by the National Cancer Institute criteria.
Animal survival curve: When an individual animal reached to the termination endpoint (TV>2000 mm^3), the mouse was euthanized. The time from treatment initiation to the termination was deemed as its survival time. Survival curve was plotted by Kaplan-Meier method. Median survival time (MST) was calculated for each group. Increase of life span (ILS) was calculated according to the following formula: […]
ILS (%)>25% is considered as a biologically significant survival benefit.
The tumor volume between different groups was analyzed by two-way repeated measures ANOVA. Dunnett post hoc test was used for the comparisons with vehicle group. All data analyzed using GraphPad Prism 6.0. P<0.05 is considered to be statistically significant.
Female C57BL/6 mice were inoculated subcutaneously at right flank with MC-38 cells for tumor development. Six days after tumor inoculation, 64 mice with tumor size ranging from 50-100 mm^3 (average tumor size 71 mm^3) were selected and assigned into 8 groups using stratified randomization with 8 mice per group based upon their tumor volumes. The treatments were started from the day of randomization (defined as D0), Group 1 was treated with Vehicle (Tween 80:Ethanol:Saline—5:5:90 v/v/v), s.c., qd×14, Group 2 was treated with Anti-PD-1 10 mg/kg i.p. q4d×4, Group 3 was treated with Compound 1 3 mpk qd×5, sc followed by 1 mpk, qd×9, sc, Group 4 was treated with Compound 1 3 mpk qd×5, sc followed by 1 mpk, qd×9, sc+anti PD-1 q4d×4, ip, Group 5 was treated with Compound 1 1 mpk qd×5, sc followed by 0.3 mpk, qd×9, sc, Group 6 was treated with Compound 1 1 mpk qd×5, sc followed by 0.3 mpk, qd×9, sc+anti PD-1 q4d×4, ip, Group 7 was treated with Compound 1 0.3 mpk qd×5, sc followed by 0.1 mpk, qd×9, sc and Group 8 was treated with Compound 1 0.3 mpk qd×5, sc followed by 0.1 mpk, qd×9, sc+anti PD-1 q4d×4, ip. The tumor sizes were measured three times per week during the treatment. The entire study was terminated on D56 after start of the treatment. […]
The MC-38 tumor cells were maintained in vitro as a monolayer culture in DMEM medium supplemented with 10% heat inactivated fetal bovine serum and 100 μg/mL penicillin streptomycin at 37° C. in an atmosphere of 5% CO2 in air. The tumor cells were routinely subcultured twice weekly by trypsin-EDTA treatment. The cells growing to a confluency around 70%-80% were harvested and counted for tumor inoculation. The cultured MC-38 were harvested, re-suspended in base medium at a density of 1×10^7 cells/mL with viability >90%. Each mouse was inoculated subcutaneously at the right flank with 1×10^6 cells in 0.1 ml base medium for tumor development. […]

By ILS is commonly meant the gain in survival time of treated over control animals, in per cent. High values mean much gain in survival, low ones little gain in survival. A word on the T/C: it is the result in the treated group divided by that in the control group, in per cent. `CC(=O)N[C@@H](Cc1c[nH]c2ccccc12)C(=O)N[C@@H](CCC(=O)C=[N+]=[N-])C(=O)OC(C)C` [Compound 1, Isopropyl (S)-2-((S)-2-acetamido-3-(1H-indol-3-yl)propanamido)-6-diazo-5-oxohexanoate]: where the note is “Cpd. 1 0.3 mpk/0.1 mpk”, the ILS was found to be 114.29%, the “RTV at day 12” value was 1.67 ± 0.03, the MST came to 30 days and the T/C came to 7.02%. Moreover, for the setting “Cpd. 1 0.3 mpk/0.1 mpk”, the TGI worked out at 97.27%. Further, where the note is “Cpd. 1 1 mpk/0.3 mpk”, the ILS came to 135.71%, the “RTV at day 12” value is 0.36 ± 0.09, the MST was determined as 33 days and the T/C is 1.51%. For the same compound, the TGI (Cpd. 1 1 mpk/0.3 mpk) was 102.87%. For the same compound, where the note is “Cpd. 1 3 mpk/1 mpk”, the ILS was 135.71%, the “RTV at day 12” value is 0.11 ± 0.03, the MST came out at 33 days and the T/C is on record as 0.46%. The TGI (Cpd. 1 3 mpk/1 mpk) is 103.98%.

Source of the values: patent US20220117938A1, “COMBINATON THERAPY WITH A DON PRODRUG AND AN IMMUNE CHECKPOINT INHIBITOR” (DRACEN PHARMACEUTICALS, INC., priority 2019, published 2022).
